The values below come from PMC5677090, “Multiple Behavior Phenotypes of the Fragile-X Syndrome Mouse Model Respond to Chronic Inhibition of Phosphodiesterase-4D (PDE4D)” (Scientific Reports, 2017).

The assay addresses T1, PDE4B (Mus musculus, UniProt Q8VBU5).
T1 sequence (Q8VBU5 1-721): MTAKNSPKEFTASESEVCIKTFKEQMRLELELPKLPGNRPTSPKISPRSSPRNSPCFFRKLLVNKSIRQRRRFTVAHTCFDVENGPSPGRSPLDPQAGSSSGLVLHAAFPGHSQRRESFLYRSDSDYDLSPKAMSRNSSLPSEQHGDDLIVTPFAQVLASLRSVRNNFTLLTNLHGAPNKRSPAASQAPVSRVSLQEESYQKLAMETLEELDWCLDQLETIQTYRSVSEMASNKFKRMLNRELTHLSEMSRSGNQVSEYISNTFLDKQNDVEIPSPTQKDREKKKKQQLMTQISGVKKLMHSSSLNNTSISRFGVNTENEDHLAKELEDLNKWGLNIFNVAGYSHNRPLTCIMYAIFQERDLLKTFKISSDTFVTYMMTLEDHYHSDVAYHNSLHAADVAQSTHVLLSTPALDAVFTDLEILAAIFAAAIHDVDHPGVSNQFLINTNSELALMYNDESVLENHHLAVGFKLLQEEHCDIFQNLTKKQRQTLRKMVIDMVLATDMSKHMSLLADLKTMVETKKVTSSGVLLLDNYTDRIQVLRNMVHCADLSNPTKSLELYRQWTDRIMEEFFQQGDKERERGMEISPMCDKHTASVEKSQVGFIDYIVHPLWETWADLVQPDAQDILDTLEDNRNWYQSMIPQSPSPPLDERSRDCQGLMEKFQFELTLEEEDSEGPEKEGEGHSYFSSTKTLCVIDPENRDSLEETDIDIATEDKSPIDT
The assay is described as follows: PDE4B inhibition IC50, selectivity comparison (assay details not given). It is filed as biochemical.

As for `O=C(O)Cc1ccc(Cc2cc(-c3cccc(Cl)c3)nc(C(F)(F)F)c2)cc1` [BPN14770], the IC50 is 2120 nM.
